Reference: ChEMBL document CHEMBL1123539, “[p-[(Thienylcarbonyl)amino]phenoxy]propanolamines derivatives as diuretic and beta-adrenergic receptor blocking agents” (1986)
One block for each compound: values may come before it.

Tests used:
Rattus norvegicus [1] = experiment: Compound was tested for oral salidiuretic activity (control/drug treatment value) in rats expressed as urinary output. at a dose of 64 mg/kg; 7.67/12.42; format: functional, Urine
Rattus norvegicus [2] = experiment: Compound was tested for oral salidiuretic activity (control/drug treatment value) in rats expressed as urinary output. at a dose of 128 mg/kg; 7.67/14.18; format: functional, Urine
[3] = biological target: Beta-2 adrenergic receptor (Canis lupus familiaris) (UniProt P54833)
Sequence of Beta-2 adrenergic receptor (Canis lupus familiaris) (P54833 whole entry, looked up): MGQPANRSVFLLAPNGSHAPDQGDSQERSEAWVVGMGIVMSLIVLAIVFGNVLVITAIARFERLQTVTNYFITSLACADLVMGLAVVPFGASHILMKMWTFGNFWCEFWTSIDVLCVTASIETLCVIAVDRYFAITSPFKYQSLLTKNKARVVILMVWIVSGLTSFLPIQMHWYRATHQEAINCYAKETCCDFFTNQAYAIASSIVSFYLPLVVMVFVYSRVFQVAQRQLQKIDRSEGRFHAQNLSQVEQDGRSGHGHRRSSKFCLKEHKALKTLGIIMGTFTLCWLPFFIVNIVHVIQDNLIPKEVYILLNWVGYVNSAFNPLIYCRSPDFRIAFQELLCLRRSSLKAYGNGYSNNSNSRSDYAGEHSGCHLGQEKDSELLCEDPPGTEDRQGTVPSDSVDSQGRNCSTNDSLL
Description: The compound was tested for beta-2 adrenergic receptor blocking activity in dogs

Rattus norvegicus [4] = experiment: Compound was tested for oral salidiuretic activity (control/drug treatment value) in rats expressed in Na+, mequiv/6 hr at a dose of 16 mg/kg; 0.181/0.242; format: functional, Urine
Rattus norvegicus [5] = experiment: Compound was tested for oral salidiuretic activity (control/drug treatment value) in rats expressed in Na+, mequiv/6 hr at a dose of 32 mg/kg; 0.181/0.230; format: functional, Urine
Rattus norvegicus [6] = experiment: Compound was tested for oral salidiuretic activity (control/drug treatment value) in rats expressed in Na+, mequiv/6 hr at a dose of 64 mg/kg; 0.181/0.512; format: functional, Urine
Rattus norvegicus [7] = experiment: Compound was tested for oral salidiuretic activity (control/drug treatment value) in rats expressed in Na+, mequiv/6 hr at a dose of 128 mg/kg; 0.181/0.607; format: functional, Urine
Rattus norvegicus [8] = experiment: Compound was tested for oral salidiuretic activity (control/drug treatment value) in rats expressed as urinary output. at a dose of 32 mg/kg; 7.67/10; format: functional, Urine
[9] = biological target: Beta-1 adrenergic receptor (Homo sapiens) (UniProt P08588); settings: Canis lupus familiaris
Sequence of Beta-1 adrenergic receptor (Homo sapiens) (P08588 whole entry, looked up): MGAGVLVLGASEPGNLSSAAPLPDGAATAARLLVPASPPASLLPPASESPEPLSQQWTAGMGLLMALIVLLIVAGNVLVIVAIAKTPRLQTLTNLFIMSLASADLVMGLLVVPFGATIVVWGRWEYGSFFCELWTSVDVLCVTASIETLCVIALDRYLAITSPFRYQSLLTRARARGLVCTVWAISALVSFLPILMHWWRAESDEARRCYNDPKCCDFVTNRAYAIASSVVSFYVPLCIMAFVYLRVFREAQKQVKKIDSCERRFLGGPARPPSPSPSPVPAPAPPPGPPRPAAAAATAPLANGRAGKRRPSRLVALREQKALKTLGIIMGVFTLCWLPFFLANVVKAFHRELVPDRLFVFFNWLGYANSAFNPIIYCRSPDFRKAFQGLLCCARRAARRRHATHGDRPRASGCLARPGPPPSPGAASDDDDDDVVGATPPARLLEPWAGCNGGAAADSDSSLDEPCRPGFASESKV
Description: Compound was tested for beta-1 adrenergic receptor blocking activity in dogs

Rattus norvegicus [10] = experiment: Compound was tested for oral salidiuretic activity (control/drug treatment value) in rats expressed as urinary output. at a dose of 16 mg/kg; 7.67/8.78; format: functional, Urine
Rattus norvegicus [11] = experiment: Compound was tested for oral salidiuretic activity (control/drug treatment value) in rats expressed in Na+, mequiv/6 hr at a dose of 128 mg/kg; 0.306/0.786; format: functional, Urine
Rattus norvegicus [12] = experiment: Compound was tested for oral salidiuretic activity (control/drug treatment value) in rats expressed as urinary output. at a dose of 128 mg/kg; 6.83/10.83; format: functional, Urine
Rattus norvegicus [13] = experiment: Compound was tested for oral salidiuretic activity (control/drug treatment value) in rats expressed in Na+, mequiv/6 hr at a dose of 128 mg/kg; 0.229/0.172; format: functional, Urine
Rattus norvegicus [14] = experiment: Compound was tested for oral salidiuretic activity (control/drug treatment value) in rats expressed as urinary output. at a dose of 128 mg/kg; 4.88/5.32; format: functional, Urine
Rattus norvegicus [15] = experiment: Compound was tested for oral salidiuretic activity (control/drug treatment value) in rats expressed in Na+, mequiv/6 hr at a dose of 110 mg/kg; 0.261/0.735; format: functional, Urine
Rattus norvegicus [16] = experiment: Compound was tested for oral salidiuretic activity (control/drug treatment value) in rats expressed in Na+, mequiv/6 hr at a dose of 110 mg/kg; 0.261/0.735
Rattus norvegicus [17] = experiment: Compound was tested for oral salidiuretic activity (control/drug treatment value) in rats expressed as urinary output. at a dose of 110 mg/kg; 7.17/11.20; format: functional, Urine
Rattus norvegicus [18] = experiment: Compound was tested for oral salidiuretic activity (control/drug treatment value) in rats expressed in Na+, mequiv/6 hr at a dose of 27 mg/kg; 0.261/0.742; format: functional, Urine
Rattus norvegicus [19] = experiment: Compound was tested for oral salidiuretic activity (control/drug treatment value) in rats expressed as urinary output. at a dose of 55 mg/kg; 7.17/9.58; format: functional, Urine
Rattus norvegicus [20] = experiment: Compound was tested for oral salidiuretic activity (control/drug treatment value) in rats expressed in Na+, mequiv/6 hr at a dose of 14 mg/kg; 0.261/0.695; format: functional, Urine
Rattus norvegicus [21] = experiment: Compound was tested for oral salidiuretic activity (control/drug treatment value) in rats expressed as urinary output. at a dose of 14 mg/kg; 7.17/9.08; format: functional, Urine
Rattus norvegicus [22] = experiment: Compound was tested for oral salidiuretic activity (control/drug treatment value) in rats expressed as urinary output. at a dose of 27 mg/kg; 7.17/9.75; format: functional, Urine
Rattus norvegicus [23] = experiment: Compound was tested for oral salidiuretic activity (control/drug treatment value) in rats expressed in Na+, mequiv/6 hr at a dose of 128 mg/kg; 0.186/0.853; format: functional, Urine
Rattus norvegicus [24] = experiment: Compound was tested for oral salidiuretic activity (control/drug treatment value) in rats expressed as urinary output. at a dose of 128 mg/kg; 8.42/10.18; format: functional, Urine
Rattus norvegicus [25] = experiment: Compound was tested for oral salidiuretic activity (control/drug treatment value) in rats expressed as urinary output. at a dose of 128 mg/kg; 7.87/8.70; format: functional, Urine
Rattus norvegicus [26] = experiment: Compound was tested for oral salidiuretic activity (control/drug treatment value) in rats expressed in Na+, mequiv/6 h at a dose of 128 mg/kg; 0.177/0.304; format: functional, Urine

Compound: NS(=O)(=O)c1cc2c(cc1Cl)NCNS2(=O)=O [HYDROCHLOROTHIAZIDE]
Activity (Rattus norvegicus [15]): 0.261 | Activity (Rattus norvegicus [16]): 0.261 | treated urinary output (Rattus norvegicus [17]): 11.2 mL | Activity (Rattus norvegicus [18]): 0.261 | treated urinary output (Rattus norvegicus [19]): 9.58 mL | Activity (Rattus norvegicus [20]): 0.261 | Activity (Rattus norvegicus [21]): 7.17 mL | Activity (Rattus norvegicus [22]): 7.17 mL

Compound: CCOC(=O)c1cc(NC(=O)c2ccsc2)ccc1OCC(O)CNC(C)(C)C (centres undefined)
ID50 [3]: > 1 mg/kg | Activity (Rattus norvegicus [23]): 0.186 | Activity (Rattus norvegicus [24]): 8.42 mL | ID50 [9]: 0.06 mg/kg

Compound: CC(=O)c1cc(NC(=O)c2cccs2)ccc1OCC(O)CNC(C)C (centres undefined)
ID50 [3]: > 1 mg/kg | Activity (Rattus norvegicus [25]): 7.87 mL | Activity (Rattus norvegicus [26]): 0.177 | ID50 [9]: 0.45 mg/kg

Second part, led by results:

ID50 [3]: > 1 mg/kg | ID50 [9]: 0.075 mg/kg
Compound: CC(C)(C)NCC(O)COc1ccc(NC(=O)c2cccs2)cc1 (centres undefined)
Activity (Rattus norvegicus [1]): 7.67 mL | Activity (Rattus norvegicus [2]): 7.67 mL | Activity (Rattus norvegicus [4]): 0.181 | Activity (Rattus norvegicus [5]): 0.181 | Activity (Rattus norvegicus [6]): 0.181 | Activity (Rattus norvegicus [7]): 0.181 | treated urinary output (Rattus norvegicus [8]): 10 mL | Activity (Rattus norvegicus [10]): 7.67 mL

ID50 [3]: > 1 mg/kg | ID50 [9]: 0.042 mg/kg
Compound: COC(=O)c1cc(NC(=O)c2cccs2)ccc1OCC(O)CNC(C)(C)C (centres undefined)
Activity (Rattus norvegicus [11]): 0.306 | Activity (Rattus norvegicus [12]): 6.83 mL

ID50 [3]: > 8 mg/kg | ID50 [9]: > 8 mg/kg
Compound: CC(C)(C)NCC(O)COc1ccc(NC(=O)c2cccs2)cc1C(=O)O (centres undefined)
Activity (Rattus norvegicus [13]): 0.229 | treated urinary output (Rattus norvegicus [14]): 5.32 mL
